This note sets out measurements from US20260297081A1, “COMPOUNDS AND METHODS OF TREATING CANCERS” (Cullgen Inc., priority 2023, published 2026).

Format in all cases: cell-based
The target in one test is CDK4 (Homo sapiens, UniProt P11802+Q16531). Description: CDK4 percentage degradation in Calu-1 cells (Table 6). Also noted: Cells that express cyclin D1-3 and CDK4/6 proteins were treated with heterobifunctional compounds; endogenous in cells; host or cells: Calu-1. To be noted: 16 hours; for inhibition at 0.04 µM: 40 nM; for inhibition at 0.2 µM: 200 nM. In a few lines: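 Calu-1 cells exposed to heterobifunctional compounds at 40 nM or 200 nM for 16 h. Cyclin D1 and CDK4 levels measured by Western blot of RIPA lysates (BCA-normalised loading), bands quantified by densitometry and expressed as percentage degradation.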

A further test deals with Calu-1 cells. Description: Anti-proliferation (viability) of NSCLC Calu-1 cells, 3 days (Table 7, FIG. 2B). To be noted: Homo sapiens, 72 h; Calu-1 cells, 3 days, 10-point serial dilution; read-out: GI IC50 in Calu-1. In a few lines: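 Cells were exposed to heterobifunctional compounds across a 10-point serial dilution, for 3 days with Calu-1 and 6 days with T47D. A negative control was included that keeps the DDB1 ligand and linker but carries a modified warhead that impairs CDK4 binding.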

Another test concerns MCF7 cells. Description: Anti-proliferation (viability) of MCF7 cells (Table 7, FIG. 2B). To be noted: Homo sapiens, MCF7, MCF7 cells, 3-6 days, 10-point serial dilution; read-out: GI IC50 in MCF-7.

Each structure is given as a SMILES string.

Chain of CDK4 (P11802 2-303 limits assumed): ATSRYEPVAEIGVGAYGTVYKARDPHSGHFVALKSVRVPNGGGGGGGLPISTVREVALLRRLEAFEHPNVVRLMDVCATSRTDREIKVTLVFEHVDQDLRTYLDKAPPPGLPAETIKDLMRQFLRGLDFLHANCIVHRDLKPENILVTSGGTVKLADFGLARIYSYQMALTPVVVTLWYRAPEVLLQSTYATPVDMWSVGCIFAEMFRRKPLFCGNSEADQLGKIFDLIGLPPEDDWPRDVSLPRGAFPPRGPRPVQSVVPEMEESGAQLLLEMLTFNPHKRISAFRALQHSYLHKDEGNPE
Chain of CDK4 (P24385 whole entry partner): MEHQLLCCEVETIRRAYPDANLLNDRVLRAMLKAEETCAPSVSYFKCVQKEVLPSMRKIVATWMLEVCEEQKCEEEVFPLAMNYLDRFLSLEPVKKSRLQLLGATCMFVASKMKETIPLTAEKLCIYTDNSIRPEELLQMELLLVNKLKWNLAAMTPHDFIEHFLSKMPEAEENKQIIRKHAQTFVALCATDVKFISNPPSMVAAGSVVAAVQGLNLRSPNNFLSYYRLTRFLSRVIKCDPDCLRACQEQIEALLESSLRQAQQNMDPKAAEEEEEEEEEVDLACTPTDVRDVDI
Chain of CDK4 (Q16531 2-1140 limits assumed): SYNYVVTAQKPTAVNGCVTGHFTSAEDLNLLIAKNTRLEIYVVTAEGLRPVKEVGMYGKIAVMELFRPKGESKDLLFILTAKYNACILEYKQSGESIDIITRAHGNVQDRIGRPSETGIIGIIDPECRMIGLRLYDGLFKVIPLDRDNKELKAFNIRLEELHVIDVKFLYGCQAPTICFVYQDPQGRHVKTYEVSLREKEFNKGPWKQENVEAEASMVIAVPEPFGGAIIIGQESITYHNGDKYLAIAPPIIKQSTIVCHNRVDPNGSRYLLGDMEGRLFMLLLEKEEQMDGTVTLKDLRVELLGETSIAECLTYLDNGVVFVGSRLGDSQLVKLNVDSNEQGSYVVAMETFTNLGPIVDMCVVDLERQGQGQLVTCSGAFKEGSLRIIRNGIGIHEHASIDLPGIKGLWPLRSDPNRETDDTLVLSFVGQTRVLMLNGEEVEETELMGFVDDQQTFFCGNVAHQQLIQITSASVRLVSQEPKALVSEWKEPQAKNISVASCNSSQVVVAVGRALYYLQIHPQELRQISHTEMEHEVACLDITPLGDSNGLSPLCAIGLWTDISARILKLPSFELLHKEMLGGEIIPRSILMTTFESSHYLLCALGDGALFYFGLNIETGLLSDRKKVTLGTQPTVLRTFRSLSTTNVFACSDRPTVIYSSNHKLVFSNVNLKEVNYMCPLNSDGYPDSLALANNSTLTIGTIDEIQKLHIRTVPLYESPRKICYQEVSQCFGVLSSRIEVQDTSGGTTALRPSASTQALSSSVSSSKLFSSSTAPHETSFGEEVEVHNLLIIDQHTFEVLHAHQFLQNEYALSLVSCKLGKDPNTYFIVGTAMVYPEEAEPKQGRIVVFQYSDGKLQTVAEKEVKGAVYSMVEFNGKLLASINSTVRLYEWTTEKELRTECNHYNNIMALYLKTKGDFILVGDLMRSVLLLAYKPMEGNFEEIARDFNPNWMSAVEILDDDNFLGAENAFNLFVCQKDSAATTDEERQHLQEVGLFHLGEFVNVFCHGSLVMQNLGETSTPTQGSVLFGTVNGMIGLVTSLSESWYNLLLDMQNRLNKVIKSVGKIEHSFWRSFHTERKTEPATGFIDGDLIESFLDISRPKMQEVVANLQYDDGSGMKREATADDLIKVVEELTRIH

`CNc1ccc(C(=O)Nc2nc(C)c(C)s2)c(NCCCCCCCNC(=O)CN2CCN(c3ccc(Nc4ncc5c(C)c(C(C)=O)c(=O)n(C6CCCC6)c5n4)nc3)CC2)n1` [CPD-4, 2-((7-(2-(4-(6-((6-acetyl-8-cyclopentyl-5-methyl-7-oxo-7,8-dihydropyrido[2,3-d]pyrimidin-2-yl)amino)pyridin-3-yl)piperazin-1-yl)acetamido)heptyl)amino)-N-(4,5-dimethylthiazol-2-yl)-6-(methylamino)nicotinamide] showed an inhibition at 0.04 µM on CDK4 of 50 to 80%. Further, the results for the IC50 with Calu-1 cells and with MCF7 cells were 0.01 to 0.05 µM and 0.05 to 0.1 µM, respectively.

For `CNc1ccc(C(=O)Nc2ccc(N(C)C)nn2)c(NC2CC3(C2)CC(OC(C)C(=O)N2CCN(c4ccc(Nc5ncc6c(C)c(C(C)=O)c(=O)n(C7CCCC7)c6n5)nc4)CC2)C3)n1` (stereo not drawn) [CPD-189, 2-((6-((1-(4-(6-((6-acetyl-8-cyclopentyl-5-methyl-7-oxo-7,8-dihydropyrido[2,3-d]pyrimidin-2-yl)amino)pyridin-3-yl)piperazin-1-yl)-1-oxopropan-2-yl)oxy)spiro[3.3]heptan-2-yl)amino)-N-(6-(dimethylamino)pyridazin-3-yl)-6-(methylamino)nicotinamide], at CDK4, the inhibition at 0.04 µM was in the range of 50 to 80% and the inhibition at 0.2 µM fell in the range of 50 to 80%. Also, in the test with Calu-1 cells, the IC50 was in the range of 0.01 to 0.05 µM. Further, the IC50 in the test with MCF7 cells is above 0.1 µM.

On CDK4, `CNc1ccc(C(=O)Nc2ccc(N(C)C)nn2)c(NC2CCC3(C2)CN(C(=O)CCN2CCN(c4ccc(Nc5ncc6c(C)c(C(C)=O)c(=O)n(C7CCCC7)c6n5)nc4)CC2)C3)n1` (stereo not drawn) [CPD-158, 2-((2-(3-(4-(6-((6-acetyl-8-cyclopentyl-5-methyl-7-oxo-7,8-dihydropyrido[2,3-d]pyrimidin-2-yl)amino)pyridin-3-yl)piperazin-1-yl)propanoyl)-2-azaspiro[3.4]octan-6-yl)amino)-N-(6-(dimethylamino)pyridazin-3-yl)-6-(methylamino)nicotinamide] had an inhibition at 0.04 µM of 50 to 80% and an inhibition at 0.2 µM above 80%. Moreover, the IC50 in the test on Calu-1 cells is at most 0.01 µM. The IC50 in the test with MCF7 cells is below 0.05 µM.

Take `CNc1ccc(C(=O)Nc2cccc(C)n2)c(NC2CC3(C2)CN(C(=O)C2(CN4CCN(c5ccc(Nc6ncc7c(C)c(C(C)=O)c(=O)n(C8CCCC8)c7n6)nc5)CC4)CC2)C3)n1` [CPD-171, 2-((2-(1-((4-(6-((6-acetyl-8-cyclopentyl-5-methyl-7-oxo-7,8-dihydropyrido[2,3-d]pyrimidin-2-yl)amino)pyridin-3-yl)piperazin-1-yl)methyl)cyclopropane-1-carbonyl)-2-azaspiro[3.3]heptan-6-yl)amino)-6-(methylamino)-N-(6-methylpyridin-2-yl)nicotinamide]: the inhibition at 0.04 µM against CDK4 is above 80%. Besides, on CDK4, the inhibition at 0.2 µM is above 80%. Also, the IC50 is at most 0.01 µM with Calu-1 cells and below 0.05 µM in the test on MCF7 cells.

Take `CNc1ccc(C(=O)Nc2ccc(N(C)C)nn2)c(NC2CC(OCCC(=O)N3CCN(c4ccc(Nc5ncc6c(C)c(C(C)=O)c(=O)n(C7CCCC7)c6n5)nc4)CC3)C2)n1` (stereo not drawn) [CPD-178, 2-((3-(3-(4-(6-((6-acetyl-8-cyclopentyl-5-methyl-7-oxo-7,8-dihydropyrido[2,3-d]pyrimidin-2-yl)amino)pyridin-3-yl)piperazin-1-yl)-3-oxopropoxy)cyclobutyl)amino)-N-(6-(dimethylamino)pyridazin-3-yl)-6-(methylamino)nicotinamide]: on CDK4, the inhibition at 0.04 µM was 50 to 80%. Also, the inhibition at 0.2 µM against CDK4 lay in the range of 50 to 80%. For the same compound, the IC50 in the test on Calu-1 cells was at most 0.01 µM; in the test on MCF7 cells it was 0.05 to 0.1 µM.

At CDK4, `CNc1ccc(C(=O)Nc2ccc(N(C)C)nn2)c(NC2CCN(C(=O)CN3CCN(c4ccc(Nc5ncc6c(C)c(C(C)=O)c(=O)n(C7CCCC7)c6n5)nc4)CC3)CC2)n1` [CPD-200, 2-((1-(2-(4-(6-((6-acetyl-8-cyclopentyl-5-methyl-7-oxo-7,8-dihydropyrido[2,3-d]pyrimidin-2-yl)amino)pyridin-3-yl)piperazin-1-yl)acetyl)piperidin-4-yl)amino)-N-(6-(dimethylamino)pyridazin-3-yl)-6-(methylamino)nicotinamide] gave an inhibition at 0.04 µM of 50 to 80% and an inhibition at 0.2 µM of 50 to 80%. Further, the IC50 with Calu-1 cells was at most 0.01 µM. Besides, the 50% inhibitory concentration (IC50) with MCF7 cells fell in the range of 0.05 to 0.1 µM.

In the case of `CNc1ccc(C(=O)Nc2cccc(C)n2)c(NC2CC(CNC(=O)CN3CCN(c4ccc(Nc5ncc6c(C)c(C(C)=O)c(=O)n(C7CCCC7)c6n5)nc4)CC3)C2)n1` (stereo not drawn) [CPD-170, 2-((3-((2-(4-(6-((6-acetyl-8-cyclopentyl-5-methyl-7-oxo-7,8-dihydropyrido[2,3-d]pyrimidin-2-yl)amino)pyridin-3-yl)piperazin-1-yl)acetamido)methyl)cyclobutyl)amino)-6-(methylamino)-N-(6-methylpyridin-2-yl)nicotinamide], on CDK4, the inhibition at 0.04 µM fell in the range of 50 to 80%. This compound came in with an inhibition at 0.2 µM against CDK4 above 80%. Besides, the IC50 in the test on Calu-1 cells is at most 0.01 µM; in the test with MCF7 cells it was 0.05 to 0.1 µM.

`CNc1ccc(C(=O)Nc2ccc(N(C)C)nn2)c(NCC2CCN(C(=O)CCN3CCN(c4ccc(Nc5ncc6c(C)c(C(C)=O)c(=O)n(C7CCCC7)c6n5)nc4)CC3)CC2)n1` [CPD-146, 2-(((1-(3-(4-(6-((6-acetyl-8-cyclopentyl-5-methyl-7-oxo-7,8-dihydropyrido[2,3-d]pyrimidin-2-yl)amino)pyridin-3-yl)piperazin-1-yl)propanoyl)piperidin-4-yl)methyl)amino)-N-(6-(dimethylamino)pyridazin-3-yl)-6-(methylamino)nicotinamide]: on CDK4, the inhibition at 0.04 µM was in the range of 50 to 80% and the inhibition at 0.2 µM is above 80%. In addition, the IC50 with Calu-1 cells was at most 0.01 µM. Also, the IC50 in the test with MCF7 cells is below 0.05 µM.

On CDK4, `CNc1ccc(C(=O)Nc2ccc(N(C)C)nn2)c(NC2CC3(C2)CN(C(=O)C(F)(F)CN2CCN(c4ccc(Nc5ncc6c(C)c(C(C)=O)c(=O)n(C7CCCC7)c6n5)nc4)CC2)C3)n1` [CPD-208, 2-((2-(3-(4-(6-((6-acetyl-8-cyclopentyl-5-methyl-7-oxo-7,8-dihydropyrido[2,3-d]pyrimidin-2-yl)amino)pyridin-3-yl)piperazin-1-yl)-2,2-difluoropropanoyl)-2-azaspiro[3.3]heptan-6-yl)amino)-N-(6-(dimethylamino)pyridazin-3-yl)-6-(methylamino)nicotinamide] returned an inhibition at 0.04 µM of 50 to 80% and an inhibition at 0.2 µM above 80%. In addition, in the test with Calu-1 cells, the IC50 is at most 0.01 µM. Also, the IC50 in the test on MCF7 cells is below 0.05 µM.

`CNc1ccc(C(=O)Nc2ccc(N(C)C)nn2)c(NC2CN(C(=O)CCN3CCN(c4ccc(Nc5ncc6c(C)c(C(C)=O)c(=O)n(C7CCCC7)c6n5)nc4)CC3)C2)n1` [CPD-186, 2-((1-(3-(4-(6-((6-acetyl-8-cyclopentyl-5-methyl-7-oxo-7,8-dihydropyrido[2,3-d]pyrimidin-2-yl)amino)pyridin-3-yl)piperazin-1-yl)propanoyl)azetidin-3-yl)amino)-N-(6-(dimethylamino)pyridazin-3-yl)-6-(methylamino)nicotinamide]: the inhibition at 0.04 µM against CDK4 was in the range of 50 to 80%. The compound also displayed an inhibition at 0.2 µM against CDK4 of 50 to 80%. Further, the IC50 is 0.01 to 0.05 µM in the test on Calu-1 cells and above 0.1 µM with MCF7 cells.

Turning to `CC(=O)c1c(C)c2cnc(Nc3ccc(N4CCN(CC(=O)N[C@H]5CC[C@H](CNc6nc(NC(C)C)ccc6C(=O)Nc6cn(C)c(C7CC7)n6)CC5)CC4)cn3)nc2n(C2CCCC2)c1=O` [CPD-275, 2-(((trans-4-(2-(4-(6-((6-acetyl-8-cyclopentyl-5-methyl-7-oxo-7,8-dihydropyrido[2,3-d]pyrimidin-2-yl)amino)pyridin-3-yl)piperazin-1-yl)acetamido)cyclohexyl)methyl)amino)-N-(2-cyclopropyl-1-methyl-1H-imidazol-4-yl)-6-(isopropylamino)nicotinamide], the results for the IC50 in the test with Calu-1 cells and in the test on MCF7 cells were at least 0.05 µM and above 0.1 µM, respectively.

`CC(=O)c1c(C)c2cnc(Nc3ccc(CN4CCN(C(=O)CN5CCC(Nc6nc(NC(C)C)ccc6C(=O)Nc6ccc(N(C)C)nn6)CC5)CC4)cn3)nc2n(C2CCCC2)c1=O` [CPD-541, 2-((1-(2-(4-((6-((6-acetyl-8-cyclopentyl-5-methyl-7-oxo-7,8-dihydropyrido[2,3-d]pyrimidin-2-yl)amino)pyridin-3-yl)methyl)piperazin-1-yl)-2-oxoethyl)piperidin-4-yl)amino)-N-(6-(dimethylamino)pyridazin-3-yl)-6-(isopropylamino)nicotinamide]: the results for the IC50 in the test with Calu-1 cells and in the test with MCF7 cells were at most 0.01 µM and below 0.05 µM, respectively.

In the case of `CC(=O)c1c(C)c2cnc(Nc3ccc(CN4CCN(C(=O)CN5CC6(CC(Nc7nc(NC(C)C)ccc7C(=O)Nc7ccc(N(C)C)nn7)C6)C5)CC4)cn3)nc2n(C2CCCC2)c1=O` [CPD-538, 2-((2-(2-(4-((6-((6-acetyl-8-cyclopentyl-5-methyl-7-oxo-7,8-dihydropyrido[2,3-d]pyrimidin-2-yl)amino)pyridin-3-yl)methyl)piperazin-1-yl)-2-oxoethyl)-2-azaspiro[3.3]heptan-6-yl)amnion)-N-(6-(dimethylamino)pyridazin-3-yl)-6-(isopropylamino)nicotinamide], the IC50 was at most 0.01 µM in the test with Calu-1 cells and 0.05 to 0.1 µM in the test with MCF7 cells.

A word on the inhibition: it is the change of the read-out against control, counted positive when it falls. What is called IC50 is the point on the concentration scale where inhibition reaches its midpoint.
